Paper PMC12472494, “Anticonvulsant Potential of 1-Aryl-6,7-dimethoxy-1,2,3,4-tetrahydroisoquinolines: Insights from Strychnine and Nicotine Models in In Vivo and In Silico Studies” (Pharmaceuticals, 2025)
“Also recorded” adds a separate entry of the source.

Tests used:
[1] = system: strychnine-induced seizures; experiment: Strychnine-induced seizure model; type: in vivo, mice; details: for responders at 1 mg/kg: Mus musculus, read-out: Survival Rate; for responders at 1 mg/kg / Duration of Tremor and Seizures / Latency to Tremor and Seizure Onset: oral dose 1.0 mg/kg 60 min before strychnine 1.5 mg/kg s.c., N = 10; for survival rate of strychnine-poisoned animals: dose not given; for Duration of Tremor and Seizures / Latency to Tremor and Seizure Onset: mean ± SD
Text: (§1) The anticonvulsant effects of the examined substances were studied in male white mice weighing 18–22 g, divided into the following groups: control (including the strychnine and nicotine groups), carbamazepine group, Convulex group, and experimental groups (one for each tested substance). Simple randomization (“heads or tails” coin toss) was used to assign animals to groups. Each group contained 10 animals. Healthy animals were included in the experiments after a 14-day quarantine period. No animals were excluded from the study. Convulsant agents were administered subcutaneously at doses of 10.0 mg/kg for nicotine (Sigma–Aldrich, Saint Louis, MO, USA) and 1.5 mg/kg for strychnine (Sigma–Aldrich, Saint Louis, MO, USA), 60 min after the oral administration of the test substances at doses ranging from 0.1 to 10 mg/kg. The onset time, duration of tremors and seizures, and survival rate of the animals were recorded. Carbamazepine (Darnitsa, Kiev, Ukraine) at doses of 5.0–10.0 mg/kg and Convulex (valproate) (Gerot Pharmazeutika GmbH, Vienna, Austria) at doses of 75.0–100.0 mg/kg (based on the therapeutic anticonvulsant dose) were used as reference drugs.
(§2) Data were presented as mean ± SD for different groups. Statistical analysis was performed using OriginPro 9.0 (MicroCal Software, Northampton, MA, USA), with p < 0.05 considered statistically significant.

[2] = parameters: method as in PMID 36677539; details: per os; cited from earlier work
[3] = system: tremorogenic and convulsive actions of nicotine; experiment: Nicotine-induced tremor and seizure model; type: in vivo, mice; details: for responders at 1 mg/kg: Mus musculus, po, read-out: Survival Rate; for survival rate of the animals increased to: at low doses (0.1–5 mg/kg); for activity against tremorogenic and convulsive actions of nicotine versus reference drugs (in words): doses of 0.1–5 mg/kg; for Duration of Seizures / Latency to Seizure Onset: oral dose 1.0 mg/kg 60 min before nicotine 10 mg/kg s.c., mean ± SD, N = 10
Text: as §1, §2

[4] = doses of 0.5–1 mg/kg, versus control

SMILES | responders at 1 mg/kg [1] | survival rate of strychnine-poisoned animals [1] | increase of animal survival ([1]; doses of 0.5–1 mg/kg) | extension of the latency period for seizures [1, 4] | reduction of seizure duration [1, 4] | Duration of Tremor and Seizures [1] | Latency to Tremor and Seizure Onset [1] | activity against strychnine-induced seizures (in words) ([1]; ranking within the series) | LD50 [2] | responders at 1 mg/kg [3] | survival rate of the animals increased to [3] | activity against tremorogenic and convulsive actions of nicotine versus reference drugs (in words) [3] | Duration of Seizures [3] | Latency to Seizure Onset [3] | survival rate in nicotine-poisoned animals ([3]; from a dose of 0.1 mg/kg)
COc1cc(Br)c(C2NCCc3cc(OC)c(OC)cc32)cc1OC (stereo not shown) [Compound 25, 1-(2′-Bromo-4′,5′-dimethoxyphenyl)-6,7-dimethoxy-1,2,3,4-tetrahydroisoquinoline] | 90% | 90% | 90% | 30–100% | 3.7–4 times | 0.14 ± 0.6 min | 16.5 ± 1.5 min | most active; also recorded: highest activity | 272.1 (249.1 ± 295.6) mg/kg | 90% | 90–100% | comparable activity to the reference drugs | 9.0 ± 0.9 min | 2.2 ± 0.04 min | 
COc1ccc(C2NCCc3cc(OC)c(OC)cc32)cc1OC (stereo not shown) [Compound 22, 1-(3′,4′-Dimethoxyphenyl)-6,7-dimethoxy-1,2,3,4-tetrahydroisoquinoline] | 30% | no more than 40% |  |  |  | 0.71 ± 0.6 min | 12.7 ± 1.3 min |  | 666.6 (557.9 ± 760.2) mg/kg | 80% |  |  |  | 2.2 ± 0.04 min | 
COc1cc2c(cc1OC)C(c1cccc(N)c1)NCC2 (stereo not shown) [Compound 33, 1-(3′-Aminophenyl)-6,7-dimethoxy-1,2,3,4-tetrahydroisoquinoline] | 50% |  |  |  |  | 0.42 ± 0.8 min | 16.7 ± 1.0 min |  | 732.0 (598.2 ± 885.4) mg/kg | 80% |  |  | 17.0 ± 0.6 min | 2.2 ± 0.04 min | 
COc1cc2c(cc1OC)C(c1ccccc1Cl)NCC2 (stereo not shown) [Compound 10, 1-(2′-Chlorophenyl)-6,7-dimethoxy-1,2,3,4-tetrahydroisoquinoline] | 30% |  |  |  |  | 0.60 ± 0.4 min | 17.2 ± 1.7 min |  | 264.2 (224.8 ± 293.9) mg/kg | 70% |  |  | 9.2 ± 0.9 min | 2.2 ± 0.03 min | 
COc1cc2c(cc1OC)C(c1ccc(Br)cc1)NCC2 (stereo not shown) [Compound 15, 1-(4′-Bromophenyl)-6,7-dimethoxy-1,2,3,4-tetrahydroisoquinoline] | 40% | no more than 40% |  |  |  | 0.50 ± 0.5 min | 12.5 ± 1.2 min |  | 422.0 (399.4 ± 445.3) mg/kg | 70% |  |  | 8.3 ± 0.3 min | 2.2 ± 0.07 min | 
COc1cc2c(cc1OC)C(c1ccc(Cl)cc1)NCC2 (stereo not shown) [Compound 12, 1-(4′-Chlorophenyl)-6,7-dimethoxy-1,2,3,4-tetrahydroisoquinoline] | 20% |  |  |  |  | 0.23 ± 0.6 min | 18.5 ± 1.8 min |  | 730.4 (598.2 ± 883.7) mg/kg | 70% |  |  | 7.0 ± 0.4 min | 2.1 ± 0.09 min | 
COc1cc2c(cc1OC)C(c1ccccc1OC)NCC2 (stereo not shown) [Compound 6, 1-(2′-Methoxyphenyl)-6,7-dimethoxy-1,2,3,4-tetrahydroisoquinoline] | 30% | no more than 40% |  |  |  | 0.50 ± 0.4 min | 15.7 ± 1.7 min |  | 286.7 (256.9 ± 318.7) mg/kg | 100% | 90–100% | comparable activity to the reference drugs | 10.5 ± 0.5 min | 2.4 ± 0.03 min | 90%
COc1cc2c(cc1OC)C(c1cccc(Br)c1)NCC2 (stereo not shown) [Compound 14, 1-(3′-Bromophenyl)-6,7-dimethoxy-1,2,3,4-tetrahydroisoquinoline] | 60% |  |  |  |  | 0.35 ± 0.8 min | 18.5 ± 1.5 min |  | 446.7 (416.2 ± 471.3) mg/kg | 90% | 90–100% | comparable activity to the reference drugs | 2.5 ± 0.4 min | 2.8 ± 0.02 min | 
COc1cc(C2NCCc3cc(OC)c(OC)cc32)ccc1O (stereo not shown) [Compound 21, 1-(4′-Hydroxy-3′-methoxyphenyl)-6,7-dimethoxy-1,2,3,4-tetrahydroisoquinoline] | 40% |  |  |  |  | 0.52 ± 0.4 min | 15.4 ± 1.5 min |  | 1663.6 (1623.1 ± 1629.1) mg/kg | 60% |  |  | 14.3 ± 0.6 min | 1.8 ± 0.04 min | 
COc1cc2c(cc1OC)C(c1ccccc1[N+](=O)[O-])NCC2 (stereo not shown) [Compound 7, 1-(2′-Nitrophenyl)-6,7-dimethoxy-1,2,3,4-tetrahydroisoquinoline] | 40% |  |  |  |  | 0.32 ± 0.7 min | 14.2 ± 1.7 min |  | 948.9 (916.8 ± 975.8) mg/kg | 70% |  |  | 7.6 ± 0.8 min | 2.3 ± 0.07 min | 
COc1ccc(C2NCCc3cc(OC)c(OC)cc32)cc1Br (stereo not shown) [Compound 19, 1-(3′-Bromo-4′-methoxyphenyl)-6,7-dimethoxy-1,2,3,4-tetrahydroisoquinoline] | 40% |  |  |  |  | 0.59 ± 0.9 min | 16.0 ± 1.4 min |  | 327.9 (287.1 ± 363.8) mg/kg | 80% |  |  | 19.0 ± 0.8 min | 1.8 ± 0.07 min | 
